Laboratory results reported in patent US10882826B2, “Quinolinone or quinazolinone comprising antibiofilm compositions, compounds and methods and uses relating thereto” (University College Cork—National University of Ireland, priority 2015, dated 2021).

Experiments:
[1] = test system: IB3 lung epithelial cells; assay: LDH release cytotoxicity, IB3-1 cells; format: cell-based; conditions: 100 μM, 16 hr, percentage of 0.1% Triton (100% cytotoxicity), MeOH 3.844
Experimental: (§1) Lactate dehydrogenase (LDH) release from IB3 lung epithelial cells was assayed as a measure of cytotoxicity using an LDH colorimetric kit (Roche) according to manufacturers' instructions. Briefly, IB3-1 cells were seeded onto 96 well plates and treated with methanol (control) and test compounds (100 μM). Following 16 hr incubation at 37° C. and 5% CO2, supernatants were removed and added to catalyst reaction mixture in a fresh plate and further incubated at 37° C. and 5% CO2 for 30 mins to allow for colour development. After this period, the plate was analysed on an ELISA plate reader at OD490 nm. Cytotoxicity was expressed as a percentage of cells treated with 0.1% (v/v) Triton (100% cytotoxicity).

DU145 = assay: LDH release cytotoxicity, DU145; format: cell-based; conditions: DU145 cell line; percentage of 0.1% Triton
Experimental: as §1, with “cytotoxicity). The results are detailed in table 3:” for “cytotoxicity).”
(§2) The above experiments were repeated, testing some compounds against further cell lines (A549, DU145 and HeLa).

[2] = test system: C. albicans strain SC5314 biofilm; assay: XTT metabolic assay of C. albicans biofilm; format: cell-based, Candida albicans; conditions: for XTT result, Mean (MeOH control = 1) / Absorbance at 492 nm, Mean (XTT): C. albicans biofilm; for Absorbance at 492 nm, Mean (XTT): test compound 100 μM, 24 hr, MeOH control 0.647, untreated 0.851; for effectiveness against fungal biofilms formed by Candida albicans (in words): summary statement
Experimental: C. albicans strain SC5314 was sub-cultured from 15% (v/v) glycerol stocks at −80° C. onto Yeast Peptone Dextrose (YPD) medium [1% (w/v) yeast extract, 2% (w/v) peptone and 2% (w/v) dextrose] and incubated at 30° C. overnight.
The test compounds in desiccated form were re-suspended in Methanol to create a 10 mM stock. […]
The ability of some of the compounds detailed in example 1 to disrupt Candida albicans was tested using Confocal Scanning Laser Microscopy and an XTT Metabolic Assay. The XTT assay is a commonly used quantitative method assessing Candida biofilm mass and growth often in response to novel drug therapies.
C. albicans biofilm formation was carried out in 96 well plates by a method of the prior art. Briefly, C. albicans was inoculated into Yeast Nitrogen Base [10% (w/v)] and glucose/maltose [10% (w/v)] and incubated overnight at 30° C. Seeding densities for all subsequent experiments (N=3) were OD600=0.05. Cells were grown in Yeast Nitrogen Base supplemented with 1 M Phosphate buffer and acetyl-D-glucosamine (YNB-NP) along with appropriate volumes of test compound to provide the desired concentration. Cells were cultured in 96 well plates for 1 hr at 37° C. to facilitate yeast attachment. After this incubation, the supernatants were aspirated, the wells washed twice with YNB-NP media, and fresh media with the same concentration of test compound added to the appropriate wells. The plate was incubated for 24 hr at 37° C. The next day, the cultures were aspirated and the wells washed once with YNB-NP media.
C. albicans biofilm quantification was carried out in 96 well plates using a semi-quantitative Tetrazolium salt, 2,3-bis-(2-methoxy-4-nitro-5-sulfophenyl)-2H tetrazolium-5-carboxanilide inner salt (XTT) reduction assay (Hawser, Tunney et al, Antimicrob Agents Chemother. 2004 May; 48(5):1879-81). XTT (0.01 g) was dissolved in sterile water (20 ml) and filter sterilized. 10 μl of Menadione dissolved in Acetone was added to the XTT solution, just before use. The XTT-Menadione Solution (100 μl) was added to each well. The plate was incubated in the dark at 37° C. for up to 2 hr to allow for colour development. The OD492 nm was recorded for each well. Experiments were repeated at least three times, with at least eight technical replicates.
Experiments were first carried out using the test compound at concentration of 100 μM.

Pseudomonus aeruginosa = assay: Virulence of Pseudomonas aeruginosa (summary statement); format: cell-based; conditions: unlike HHQ and PQS
Experimental: The virulence of compounds B1, B2, C2, C3, C4, C5, C6, C8 and C11 towards P. aeruginosa was assessed using the following method:
P. aeruginosa strains were cultured as described above for 24 hr, with the addition of test compounds (10 μM). Cultures were centrifuged at 4000 rpm for 10 minutes and the cell free supernatant (5 ml) removed. Chloroform (3 ml) was added, and mixed by vortex. After centrifugation at 4000 rpm for 5 mins, the lower aqueous phase was transferred to 0.2 M HCl (2 ml). Samples were mixed by vortex and centrifuged at 4000 rpm for 5 mins to separate the phases. An aliquot of the top phase (1 ml) was removed and spectrophotmetrically analysed at OD570 nm. Phenazine production was calculated using the following formula: OD570 nm×2×17.072 and the units expressed in μg/ml. […]

[3] = test system: pqsA-lacZ promoter fusion; assay: Promoter fusion based expression analysis (pqsA-lacZ, Miller units); format: cell-based, P. aeruginosa; conditions: PAO1 pqsA-pqsA-lacZ strain, 100 μM, overnight; methanol control 12287
Experimental: (§3) P. aeruginosa strains, PAO1 and pqsA mutant, containing the chromosomally inserted pqsA-lacZ promoter fusion on plasmid pUC18-mini-Tn7, were sub-cultured from glycerol stocks onto LB agar plates, supplemented with Carbenicillin (200 μg/ml) and X-gal (40 μg/ml), and incubated at 37° C. overnight. Single colonies were inoculated into LB broth (20 ml), supplemented with Carbenicillin (200 μg/ml), and incubated at 37° C., shaking at 180 rpm overnight. For subsequent experiments, the OD600 nm was recorded and a starting OD600 nm of 0.02 was inoculated into fresh LB broth, supplemented with Carbenicillin (200 μg/ml) and incubated at 37° C., shaking at 180 rpm.
Promoter fusion analyses were performed in a 96-well format. Briefly, overnight cultures of wild-type PAO1 pqsA-lacZ (pLP0996) and mutant strain PAO1 pqsA^− pqsA-LacZ were diluted to OD600 nm=0.02 in LB. Test compounds at 100 μM final concentration were added, mixed, aliquoted into 96 well plates and incubated overnight at 37° C. with shaking. The next day, OD600 nm values were recorded in a plate reader. Aliquots of cells (0.02 ml) were permeabilised [100 mM dibasic sodium phosphate (Na2HPO4), 20 mM KCl, 2 mM MgSO4, 0.8 mg/mL CTAB (hexadecyltrimethylammonium bromide), 0.4 mg/mL sodium deoxycholate, 5.4 μL/mL beta-mercaptoethanol] and added to substrate solution [60 mM Na2HPO4, 40 mM NaH2PO4, 1 mg/mL o-nitrophenyl-β-D-Galactoside (ONPG), 2.7 μL/mL β-mercaptoethanol]. The kinetics of colour development was monitored and the reactions were stopped using 1M NaCO3. OD420 nm were recorded as above. Miller units were calculated using the following equation; 1000×[OD420 nm/(OD600 nm)×0.02 ml×reaction time (mins)].
(§4) The phenazine production levels and Miller units in the PAO1 pqsA-pqsA-lacZ strain are detailed in table 5.
(§5) The virulence of compounds B2, C13 and C15 towards P. aeruginosa was assessed using an analogous method.

[4] = test system: P. aeruginosa PAO1 pqsA-pqsA-lacZ strain; assay: Phenazine extraction (phenazine production); format: cell-based; conditions: PAO1 pqsA-pqsA-lacZ strain, test compounds 10 μM, 24 hr; methanol control 0.080
Experimental: as §3
P. aeruginosa strains were cultured as described above for 24 hr, with the addition of test compounds (10 μM). Cultures were centrifuged at 4000 rpm for 10 minutes and the cell free supernatant (5 ml) removed. Chloroform (3 ml) was added, and mixed by vortex. After centrifugation at 4000 rpm for 5 mins, the lower aqueous phase was transferred to 0.2 M HCl (2 ml). Samples were mixed by vortex and centrifuged at 4000 rpm for 5 mins to separate the phases. An aliquot of the top phase (1 ml) was removed and spectrophotmetrically analysed at OD570 nm. Phenazine production was calculated using the following formula: OD570 nm×2×17.072 and the units expressed in μg/ml.
as §4, §5

mammalian cells = assay: Cytotoxicity towards mammalian cells (summary statement); format: cell-based
Experimental: as §1, with “cytotoxicity). The results are detailed in table 3:” for “cytotoxicity).”
as §2

[5] = test system: A. fumigatus Af293 biofilm; assay: A. fumigatus biofilm assay (crystal violet); format: cell-based, Aspergillus fumigatus
Experimental: A. fumigatus Af293 was routinely grown on Sabouraud dextrose agar (SDA) in 100 ml cell culture flasks at 37° C. for 3-4 days until a lawn of fungal growth was observed.
(§6) A. fumigatus Af293 was grown on SDA in 100 ml cell culture flasks at 37° C. for 3-4 days. Conidia were harvested by flooding the surface of the agar plates with 5 ml PBS (Oxoid) containing 0.025% (v/v) Tween 20 and gently moving the liquid over the surface of the fungal lawn. The conidial suspension was transferred into a 25 ml sterile container and conidia were counted using a Neubauer haemocytometer and light microscope. Conidia were adjusted to the required concentration in RPMI 1640 (Sigma) buffered to pH 7.0 with 0.165 M MOPS immediately prior to biofilm formation analysis.
(§7) To assess biofilm formation, counted A. fumigatus spores (1×10^5) in MOPS buffered RPMI 1640 were inoculated into 24- and 96-well plates and grown overnight in the presence of 100 μM HHQ, PQS and the test compounds. After 24 hrs, the media was removed and the biofilm washed twice with distilled water after which 0.1% crystal violet (CV) was added to each well and allowed to stand for 1 hr at room temperature. The crystal violet was removed and all wells washed in a water bath by inversion. Ethanol was added to each well to solubilise biofilms after which samples were read on a spectrophotometer at Abs595 nm.

[6] = test system: A. fumigatus CFBRC2 biofilm; assay: A. fumigatus biofilm assay, clinical source CFBRC2; format: cell-based, Aspergillus fumigatus; conditions: biofilm from clinical source CFBRC2
Experimental: as §6, §7
(§8) The above experiments were carried out using biofilms grown from laboratory sources of A. fumigatus. The experiments were repeated to test some compounds against biofilms grown from three different clinical sources of A. fumigatus (CFBRC1, CFBRC2 and CFBRC3. The results are shown in table 8: […]

[7] = test system: A. fumigatus CFBRC1 biofilm; assay: A. fumigatus biofilm assay, clinical source CFBRC1; format: cell-based, Aspergillus fumigatus; conditions: biofilm from clinical source CFBRC1
Experimental: as §6, §7, §8

[8] = test system: A. fumigatus CFBRC3 biofilm; assay: A. fumigatus biofilm assay, clinical source CFBRC3; format: cell-based, Aspergillus fumigatus; conditions: biofilm from clinical source CFBRC3
Experimental: as §6, §7, §8

SMILES	% Cytotoxicity, Mean (LDH release) [1]	Cytotoxicity, Mean (LDH release) (DU145)	XTT result, Mean (MeOH control = 1) ([2]; 10 μM)	XTT result, Mean (MeOH control = 1) ([2]; 50 μM)	XTT result, Mean (MeOH control = 1) ([2]; 100 μM)	Absorbance at 492 nm, Mean (XTT) [2]	effectiveness against fungal biofilms formed by Candida albicans (in words) [2]	effect on virulence of Pseudomonus aeruginosa (in words) (Pseudomonus aeruginosa)	Miller Units, Mean [3]	Phenazine, Mean [4]	cytotoxicity towards mammalian cells (in words) (mammalian cells)	Relative absorbance at 595 nm compared to methanol control, Mean ([5]; A. fumigatus Af293 biofilm, 100 μM, 24 hrs, crystal violet)	effectiveness against fungal biofilms formed by Aspergillus fumigatus (in words) ([5]; summary statement)	Relative absorbance compared to MeOH (=1), Mean [6]	Relative absorbance compared to MeOH (=1), Mean [7]	Relative absorbance compared to MeOH (=1), Mean [8]
CCCCCCCc1cc(=O)c2cc(C)ccc2[nH]1 [Compound C3]	23.77%	32.42%	0.71	0.57	0.51	0.307	effective	do not increase the virulence	18350 Miller Units	0.774 µg/mL	–	–	–	–	–	–
CCCCCCCn1c(=O)cc(O)c2ccccc21 [Compound C6]	19.70%	–	–	–	–	0.336	effective	do not increase the virulence	16678 Miller Units	0.011 µg/mL	reduced cytotoxicity	–	–	–	–	–
CCCCCCCCCc1cc(=O)c2ccccc2[nH]1 [Compound C10]	–	31.7%	0.58	0.50	0.53	0.419	–	do not increase the virulence	–	–	reduced cytotoxicity	0.24	effective	0.567	0.772	0.670
